Data on four compounds can be found in US4898870A, “Pyrroloquinoline quinone compounds useful as an enzyme inhibitor” (Sogo Pharmaceutical Company Limited, priority 1986, dated 1990).

What all share (format): biochemical
Experiment [1] deals with T1, human placental aldose reductase (Homo sapiens, UniProt P15121).
T1 construct: An enzyme solution was prepared from human placenta; from tissue; host or cells: human placenta
Nature of the experiment: Inhibition of human placental aldose reductase. As to conditions: for IC50: human placenta enzyme; for IC100: read-out: concentration inhibiting the activity by 100%. Here is the method: (§1) Specifically reaction was started by adding dl-glyceraldehyde as a substrate to a reaction solution containing rat lens homogenate, Li2 SO4, NADPH2 and inhibitor, and the enzyme activity was measured by the decrease of the optical absorption of NADPH2 (optical density: OD) at 340 nm for 5 min. The solution with no addition of the substrate was used for the blank OD. The inhibiting ratio for the aldose reductase reaction by the inhibitor was determined by the following equation: [formula]
The determination of enzyme activity was same as in Test Example 1 except enzyme source was human placenta.
(§2) To a reaction solution containing the chick lens homogenate, Li2 SO4, NADPH2 and an inhibitor, was added dlglyceraldehyde as substrate to start the reaction, and the enzymatic activity was determined by measuring the decrease in optical density (OD) of NADPH2 at 340 nm after five minutes. A solution with no substrate added was used for the blank test. The inhibition rate against the aldose reductase reaction was calculated from the following equation: [formula]
An enzyme solution was prepared from human placenta, and the inhibitory action of PQQ·2K against human placental aldose reductase was measured in the same way as in Test Example 4.
An enzyme solution was prepared from human placenta, and the inhibitory action of PQQ·3Me against human placental aldose reductase was measured in the same way as in Test Example 4.
An enzyme solution was prepared from human placenta, and the inhibitory action of PQQ·2Me.Et against human placental aldose reductase was measured in the same way as in Test Example 4.

Experiment [2] deals with T2, rat lens aldose reductase (Rattus norvegicus, UniProt P07943).
T2 construct: A homogenate of rat lens was used; from tissue; host or cells: rat lens (crude homogenate; in later tests the 3,000 rpm supernatant)
Briefly: Inhibition of rat lens aldose reductase (NADPH2 OD decrease at 340 nm). Conditions: for IC50: rat lens homogenate, substrate dl-glyceraldehyde; for inhibition at 10 µM: inhibitor 10^-5 M/reaction soln.; for inhibition at 1 µM: inhibitor 10^-6 M/reaction soln.; for IC100: rat lens, read-out: concentration inhibiting the activity by 100%. Here is the method:
A homogenate of rat lens was used and the activity of aldose reductase was measured by the method of Kinoshita, et. al. (Kinoshita J. H., et al, Metabolism, 28, 462-469, (1979)).
as §1, §2
A homogenate of rat lens was centrifuged for four minutes at 3,000 rpm under cooling, the supernatant was collected as an enzyme solution, and the inhibitory action of PQQ·H2 against aldose reductase was measured in the same way as in Test Example 4.
An enzyme solution was prepared from rat lens in the same manner as in Test Example 10, and the inhibitory action of PQQ·3Me against rat lens aldose reductase was measured in the same way as in Test Example 4.

In experiment [3] the target is T3, bovine lens aldose reductase (Bos taurus, UniProt P16116).
T3 construct: A homogenate of bovine lens was centrifuged for ten minutes at 20,000 rpm under cooling; from tissue; host or cells: bovine lens (20,000 rpm supernatant of homogenate)
Nature of the experiment: Inhibition of bovine lens aldose reductase. Conditions: for IC50: bovine lens enzyme; for IC100: bovine lens, read-out: concentration inhibiting the activity by 100%; for inhibition at 4 µM: inhibitor 4 × 10^-6 M/reaction soln.; for inhibition at 6 µM: inhibitor 6 × 10^-6 M/reaction soln.; for inhibition at 8 µM: inhibitor 8 × 10^-6 M/reaction soln.; for inhibition at 10 µM: inhibitor 10^-5 M/reaction soln.; for inhibition at 1 µM: inhibitor 10^-6 M/reaction soln.; for inhibition at 0.1 µM: inhibitor 10^-7 M/reaction soln. How it is done:
as §1
The determination of enzyme activity was same as in Test Example 1 except enzyme source was bovine lens.
as §2
A homogenate of bovine lens was centrifuged for ten minutes at 20,000 rpm under cooling, the supernatant was collected as an enzyme solution, and the inhibitory action of PQQ against aldose reductase was measured in the same way as in Test Example 4.
A homogenate of bovine lens was centrifuged for ten minutes at 20,000 rpm under cooling, the supernatant was collected as an enzyme solution, and the inhibitory action of PQQ·H2 against bovine lens aldose reductase was measured in the same way as in Test Example 4.
An enzyme solution was prepared from chick lens in the same manner as in Test Example 9, and the inhibitory action of PQQ·3Me against bovine lens aldose reductase was measured in the same way as in Test Example 4.

Experiment [4] concerns chick lens aldose reductase. Briefly: Inhibition of chick lens aldose reductase. As to conditions: for concentration inhibiting the activity by 100%: chick lens; for IC50: chick lens homogenate, read-out: concentration inhibiting the aldose reductase activity by 50%. Here is the method: The activity of aldose reductase was measured according to the method of Kinoshita et al. [Metabolism, 28, 462-469 (1979)] using a homogenate of chick lens.
as §2
An enzyme solution was prepared from chick lens in the same manner as in Test Example 4, and the inhibitory action of PQQ·H2 against aldose reductase was measured in the same way as in Test Example 4.
An enzyme solution was prepared from chick lens in the same manner as in Test Example 4, and the inhibitory action of PQQ·3Me against aldose reductase was measured in the same way as in Test Example 4.

The mark [5] stands for this setting: inhibitor 2 × 10^-6 M/reaction soln., read-out: Inhibition Rate.
Setting [6] is: inhibitor 4 × 10^-6 M/reaction soln., read-out: Inhibition Rate.
The mark [7] stands for this setting: inhibitor 10^-5 M/reaction soln.
[8] abbreviates: inhibitor 10^-6 M/reaction soln.
[9] abbreviates: inhibitor 10^-4 M/reaction soln., read-out: Inhibition Rate.
Where [10] appears, read: inhibitor 10^-7 M/reaction soln.

Values joined by “and” are separate entries in the source; they are usually repeats but may differ in a detail not shown here. Equal values may be shown once. Where a name gives a salt, the structure may show the parent alone.

The term inhibition denotes the percentage by which the read-out fell short of the control. For the compound `O=C(O)c1cc(C(=O)O)c2c(n1)C(=O)C(=O)c1cc(C(=O)O)[nH]c1-2` [PQQ.2K, PQQ dipotassium salt], the IC50 is 1.92 µM and 1.9 µM in experiment [1]; 2 µM in experiment [2]. For the same compound, the IC100 in experiment [1] (human placenta) was 4 µM. In addition, the inhibition at 2 µM in experiment [1] (setting [5]) turned out to be 51.4%. In experiment [1] (inhibitor 3 × 10^-6 M/reaction soln., read-out: Inhibition Rate), the inhibition at 3 µM is 83.3%. In addition, the inhibition at 4 µM in experiment [1] (setting [6]) came to 100%. For the same compound, the inhibition at 0.9 µM in experiment [1] (inhibitor 9 × 10^-7 M/reaction soln., read-out: Inhibition Rate) is 8.3%. Further, the inhibition at 1 µM in experiment [1] (inhibitor 10^-6 M/reaction soln., read-out: Inhibition Rate) stood at 26.9%.

Consider `COC(=O)c1cc(C(=O)OC)c2c(n1)C(=O)C(=O)c1cc(C(=O)OC)[nH]c1-2` [PQQ.3Me, PQQ trimethyl ester], for which, in experiment [3] (bovine lens (Table 13)), the “concentrations at which effective” value is recorded as ≥ 10^-6 M. The IC50 in experiment [3] stood at 4.2 µM; in experiment [1], 0.39 µM; in experiment [4], 3 µM; in experiment [2], 5.8 µM. In addition, the IC100 in experiment [3] is 6 µM; in experiment [1] (human placenta), 2.5 µM; in experiment [2], 10 µM. The results for the inhibition at 2 µM in experiment [3] (setting [5]) and in experiment [2] (setting [5]) were 22.6% and 3.3%, respectively. For the same compound, the inhibition at 4 µM in experiment [3] (read-out: Inhibition Rate) was 45.8%; in experiment [2] (setting [6]), 23.5%. Besides, the inhibition at 6 µM was 100% in experiment [3] (read-out: Inhibition Rate) and 54.4% in experiment [2] (inhibitor 6 × 10^-6 M/reaction soln., read-out: Inhibition Rate). Also, the inhibition at 8 µM in experiment [3] (read-out: Inhibition Rate) is 100%; in experiment [2] (inhibitor 8 × 10^-6 M/reaction soln., read-out: Inhibition Rate) it was 98.9%. Also, the inhibition at 10 µM in experiment [3] (read-out: Inhibition Rate) and in experiment [2] (read-out: Inhibition Rate) was 100% each time. The inhibition at 1 µM in experiment [3] (read-out: Inhibition Rate) came to 10%; in experiment [2] (read-out: Inhibition Rate), 0%. In addition, the inhibition at 0.1 µM in experiment [3] (read-out: Inhibition Rate) came out at 0%; in experiment [1] (inhibitor 10^-7 M/reaction soln., read-out: Inhibition Rate), 10%. Also, the inhibition at 0.2 µM in experiment [1] (inhibitor 2 × 10^-7 M/reaction soln., read-out: Inhibition Rate) was 15%. Further, the inhibition at 2.5 µM in experiment [1] (inhibitor 2.5 × 10^-6 M/reaction soln., read-out: Inhibition Rate) is 100%. Besides, in experiment [1] (inhibitor 3 × 10^-7 M/reaction soln., read-out: Inhibition Rate), the inhibition at 0.3 µM was 34.4%. Moreover, the inhibition at 0.4 µM in experiment [1] (inhibitor 4 × 10^-7 M/reaction soln., read-out: Inhibition Rate) was determined as 50.6%. Further, the inhibition at 5 µM in experiment [1] (inhibitor 5 × 10^-6 M/reaction soln., read-out: Inhibition Rate) worked out at 100%. The inhibition at 0.5 µM in experiment [1] (inhibitor 5 × 10^-7 M/reaction soln., read-out: Inhibition Rate) was 63.9%. Besides, the inhibition at 0.08 µM in experiment [1] (inhibitor 8 × 10^-8 M/reaction soln., read-out: Inhibition Rate) is 1.7%. Moreover, in experiment [4], the “concentration inhibiting the activity by 100%” value was 8 µM. Also, the “Inhibition Rate” value in experiment [4] (inhibitor 2 × 10^-6 M/reaction soln.) is reported as 30.0%; in experiment [4] (inhibitor 4 × 10^-6 M/reaction soln.) it was 77.1%; in experiment [4] (inhibitor 6 × 10^-6 M/reaction soln.), 87.1%; in experiment [4] (inhibitor 8 × 10^-6 M/reaction soln.), 100%; in experiment [4] (setting [7]) it was 100%; in experiment [4] (setting [8]) it was 0%. The inhibition at 100 µM in experiment [2] (setting [9]) came to 100%.

Consider `O=C(O)c1cc(C(=O)O)c2c(n1)c(O)c(O)c1cc(C(=O)O)[nH]c12` [PQQ.H2, PQQ reduced form], for which the figures for the IC50 in experiment [3], in experiment [4] and in experiment [2] were 5 µM, 6 µM and 8.5 µM, respectively. Besides, the IC100 was determined as 8 µM in experiment [3] and 20 µM in experiment [2]. In addition, the inhibition at 4 µM in experiment [3] (read-out: Inhibition Rate) is 27.8%. Moreover, in experiment [3] (read-out: Inhibition Rate), the inhibition at 6 µM came out at 89.9%. For the same compound, in experiment [3] (read-out: Inhibition Rate), the inhibition at 8 µM was found to be 100%. For the same compound, the inhibition at 100 µM in experiment [3] (setting [9]) came out at 100%. Also, the inhibition at 10 µM in experiment [3] (read-out: Inhibition Rate) came out at 100%; in experiment [2] (read-out: Inhibition Rate), 59.5%. In addition, the inhibition at 1 µM in experiment [3] (read-out: Inhibition Rate) is 0%; in experiment [2] (read-out: Inhibition Rate), 15.1%. Besides, in experiment [3] (read-out: Inhibition Rate), the inhibition at 0.1 µM was determined as 0%. Besides, the “concentration inhibiting the activity by 100%” value in experiment [4] stood at 60 µM. Also, the “Inhibition Rate” value in experiment [4] (inhibitor 2 × 10^-5 M/reaction soln.) turned out to be 68.4%; in experiment [4] (inhibitor 4 × 10^-5 M/reaction soln.), 92.8%; in experiment [4] (inhibitor 6 × 10^-5 M/reaction soln.), 100%; in experiment [4] (inhibitor 8 × 10^-5 M/reaction soln.), 100%; in experiment [4] (inhibitor 10^-4 M/reaction soln.) it was 100%; in experiment [4] (setting [7]), 62.1%. The results for the “Inhibition Rate” value in experiment [4] (setting [8]), in experiment [4] (setting [10]) and in experiment [2] (inhibitor concentration not printed (first line of Table 11)) were 31.8%, 0% and 0%, respectively. For the same compound, the inhibition at 20 µM in experiment [2] (inhibitor 2 × 10^-5 M/reaction soln., read-out: Inhibition Rate) was determined as 100%.

Regarding PQQ dimethyl ethyl ester [PQQ.2Me.Et], in experiment [1] (human placenta), the “concentration inhibiting the activity by 100%” value amounted to 2.5 µM. In addition, the IC50 in experiment [1] was determined as 0.42 µM. The “Inhibition Rate” value in experiment [1] (inhibitor 1.25 × 10^-6 M/reaction soln.) stood at 97.1%; in experiment [1] (inhibitor 2 × 10^-7 M/reaction soln.) it was 17.6%; in experiment [1] (inhibitor 2.5 × 10^-6 M/reaction soln.), 100%; in experiment [1] (inhibitor 3 × 10^-7 M/reaction soln.) it was 29.3%; in experiment [1] (inhibitor 5 × 10^-7 M/reaction soln.), 59.0%; in experiment [1] (setting [8]) it was 91.2%. The “Inhibition Rate” value in experiment [1] (setting [10]) was 0%.
